Test results as given in patent US10513511B2, “Aqueous suspension formulation comprising 4-(4-(4-(((3R,5R)-5-((1H-1,2,4-triazol-1-yl)methyl)-5-(2,4-difluoro-phenyl)tetrahydrofuran-3-yl)methoxy)-3-methylphenyl) or a pharmaceutically acceptable salt thereof” (PULMOCIDE LIMITED, priority 2015, dated 2019).
In brackets after ≈: the same amount, converted by molar mass.

Key:
Type in all cases: cell-based
[1] = system: Chaectomium globosum ATCC44699; assay: Fungus panel screening, CLSI broth microdilution; settings: for MIC50: 50% inhibition by visual inspection (CLSI); for MIC: 100% inhibition by visual inspection (CLSI), read-out: MIC100
Protocol: (§1) Fungus panel screening was conducted by Eurofins Panlabs Inc. The MIC and MIC50 values of the test articles were determined following the guidelines of the CLSI: broth microdilution methods for yeast (CLSI M27-A2), (CLSI, 2002) and for filamentous fungi (CLSI M38-A), (CLSI, 2008).

[2] = system: Candida albicans ATCC10231; assay: Fungus panel screening, CLSI broth microdilution; settings: for MIC50: 50% inhibition by visual inspection (CLSI); for MIC: 100% inhibition by visual inspection (CLSI), read-out: MIC100
Protocol: as §1

[3] = system: Aureobasidium pullulans ATCC9348; assay: Fungus panel screening, CLSI broth microdilution; settings: for MIC50: 50% inhibition by visual inspection (CLSI); for MIC: 100% inhibition by visual inspection (CLSI), read-out: MIC100
Protocol: as §1

[4] = system: Cryptococcus neoformans ATCC24067; assay: Fungus panel screening, CLSI broth microdilution; settings: for MIC50: 50% inhibition by visual inspection (CLSI); for MIC: 100% inhibition by visual inspection (CLSI), read-out: MIC100
Protocol: as §1

[5] = system: Rhizopus oryzae ATCC11145; assay: Fungus panel screening, CLSI broth microdilution; settings: Rhizopus arrhizus; for MIC50: 50% inhibition by visual inspection (CLSI); for MIC: 100% inhibition by visual inspection (CLSI), read-out: MIC100
Protocol: as §1

[6] = system: Trichophyton rubrum ATCC10218; assay: Fungus panel screening, CLSI broth microdilution; settings: for MIC: 100% inhibition by visual inspection (CLSI), read-out: MIC100; for MIC50: 50% inhibition by visual inspection (CLSI)
Protocol: as §1

[7] = system: Penicillium chrysogenum ATCC9480; assay: Fungus panel screening, CLSI broth microdilution; settings: for MIC50: 50% inhibition by visual inspection (CLSI); for MIC: 100% inhibition by visual inspection (CLSI), read-out: MIC100
Protocol: as §1

Candida glabrata 20197.1 = assay: Fungus panel screening, CLSI broth microdilution; settings: Nakaseomyces glabratus; for MIC50: 50% inhibition by visual inspection (CLSI); for MIC: 100% inhibition by visual inspection (CLSI), read-out: MIC100
Protocol: as §1

[8] = system: Candida albicans 20183.073; assay: Fungus panel screening, CLSI broth microdilution; settings: for MIC50: 50% inhibition by visual inspection (CLSI); for MIC: 100% inhibition by visual inspection (CLSI), read-out: MIC100
Protocol: as §1

[9] = system: Aspergillus fumigatus L98H (TR34/L98H); assay: Planktonic fungus growth: broth microdilution assay (L98H); settings: Aspergillus fumigatus, read-out: MIC75 Values against Aspergillus fumigatus isolate L98H
Protocol: This assay was conducted using a modified method published by EUCAST (Rodriguez-Tudela, et al., 2008). Spores of Aspergillus fumigatus (NCPF2010, NCPF7010 [methionine 220 mutation], NCPF7099 [Glycine G54 mutation]) from Public Health England, Wiltshire; TR34/L98H mutants from St Louis Hospital, Paris, France; TR46/Y121F/T289A mutants from University of Delhi, Delhi, India) were cultured in Sabouraud dextrose agar for 3 days. A stock spore suspension was prepared from a Sabouraud dextrose agar culture by washing with PBS-tween (10 mL; phosphate buffered saline containing 0.05% Tween-20, 100 U/mL penicillin and 100 U/mL streptomycin). The spore count was assessed using a Neubauer haemocytometer and then adjusted to 10^6 spores/mL with PBS. A working suspension of spores (2×10^5 spores/mL) was prepared in filter sterilised, BSA MOPS RPMI-1640 (50 mL; RPMI-1640 containing 2 mM L-glutamine, 0.5% BSA, 2% glucose, 0.165 M MOPS, buffered to pH 7 with NaOH).
For the assay, BSA MOPS RPMI-1640 (50 μL/well) was added throughout the 384-well plate (Catalogue number 353962, BD Falcon, Oxford, UK) first. Test compounds (0.5 μL DMSO solution) were then added in quadruplicate using an Integra VIAFLO 96 (Integra, Zizers, Switzerland), and mixed well using a plate mixer. Subsequently 50 μL of the working spore suspension prepared above was added to all wells except non-spore control wells. For non-spore control wells, BSA MOPS-RPMI solution (50 μL/well) was added instead. The plate was covered with a plastic lid, and incubated (35° C. with ambient air) for 48 hr. The OD of each well at 530 nm was determined using a multi-scanner (Clariostar: BMG, Buckinghamshire, UK). The percentage inhibition for each well was calculated and the MIC50, MIC75 and MIC90 values were calculated from the concentration-response curve generated for each test compound.

SMILES | MIC50 [1] [µg/mL] | MIC [1] [µg/mL] | MIC50 [2] [µg/mL] | MIC [2] [µg/mL] | MIC50 [3] [µg/mL] | MIC [3] [µg/mL] | MIC50 [4] [µg/mL] | MIC [4] [µg/mL] | MIC50 [5] [µg/mL] | MIC [5] [µg/mL] | MIC [6] [µg/mL] | MIC50 [7] [µg/mL] | MIC [7] [µg/mL] | MIC50 (Candida glabrata 20197.1) [µg/mL] | MIC (Candida glabrata 20197.1) [µg/mL] | MIC50 [8] [µg/mL] | MIC [8] [µg/mL] | MIC [9] [µM] | MIC50 [6] [µg/mL]
Cc1cc(N2CCN(c3ccc(C(=O)N[C@H]4CCCC[C@@H]4O)cc3)CC2)ccc1OC[C@@H]1CO[C@@](Cn2cncn2)(c2ccc(F)cc2F)C1 [Compound (Ia), 4-(4-(4-(((3R,5R)-5-((1H-1,2,4-triazol-1-yl)methyl)-5-(2,4-difluorophenyl)tetrahydrofuran-3-yl)methoxy)-3-methylphenyl)piperazin-1-yl)-N-((1S,2S)-2-hydroxycyclohexyl) benzamide] | 0.031 (≈ 0.0451 µM) | 0.13 (≈ 0.189 µM) | 0.25 (≈ 0.364 µM) | > 2 | 0.25 (≈ 0.364 µM) | 1 (≈ 1.46 µM) | 0.016 (≈ 0.0233 µM) | 0.063 (≈ 0.0917 µM) | 0.25 (≈ 0.364 µM) | 0.5 (≈ 0.728 µM) | 0.031 (≈ 0.0451 µM) | 0.063 (≈ 0.0917 µM) | 0.13 (≈ 0.189 µM) | 0.0078 (≈ 0.0114 µM) | > 2 | 0.125 (≈ 0.182 µM) | > 2 | 0.0127 (≈ 0.00872 µg/mL) | –
CC[C@@H]([C@H](C)O)n1ncn(-c2ccc(N3CCN(c4ccc(OC[C@@H]5CO[C@@](Cn6cncn6)(c6ccc(F)cc6F)C5)cc4)CC3)cc2)c1=O [Posaconazole, reference compound] | 0.13 (≈ 0.186 µM) | 0.25 (≈ 0.357 µM) | 0.13 (≈ 0.186 µM) | > 8 | 0.25 (≈ 0.357 µM) | 1 (≈ 1.43 µM) | 0.016 (≈ 0.0228 µM) | 0.25 (≈ 0.357 µM) | 0.13 (≈ 0.186 µM) | > 8 | 0.031 (≈ 0.0442 µM) | 0.063 (≈ 0.0899 µM) | 0.13 (≈ 0.186 µM) | 0.031 (≈ 0.0442 µM) | > 8 | 0.25 (≈ 0.357 µM) | > 8 | 0.0983 (≈ 0.0689 µg/mL) | < 0.008
C[C@@H](c1ncncc1F)[C@](O)(Cn1cncn1)c1ccc(F)cc1F [Voriconazole] | 0.5 (≈ 1.43 µM) | 1 (≈ 2.86 µM) | 0.25 (≈ 0.716 µM) | > 8 | > 8 | > 8 | 0.016 (≈ 0.0458 µM) | 1 (≈ 2.86 µM) | 8 (≈ 22.9 µM) | > 8 | 0.063 (≈ 0.18 µM) | 1 (≈ 2.86 µM) | 2 (≈ 5.73 µM) | 0.031 (≈ 0.0887 µM) | > 8 | 4 (≈ 11.5 µM) | > 8 | 2.58 (≈ 0.903 µg/mL) | < 0.008
